Conditions: Liquid, Bellows volumetry

CCCC [butane]
mass density [kg/m3]
Conditions | 380 K | 400 K | 420 K | 440 K
3000 kPa | 463.27 | – | – | –
5000 kPa | 474.65 | 437.19 | – | –
10000 kPa | 494.93 | 466.97 | 436.16 | 401.28
20000 kPa | 521.9 | 500.93 | 479.15 | 457.43
30000 kPa | – | 522.83 | 504.89 | 487.23
40000 kPa | 555.85 | 539.73 | 523.9 | 508.57
50000 kPa | – | 553.54 | 539.08 | 525.26
60000 kPa | 579.32 | 565.44 | 551.8 | 539.13
70000 kPa | – | 575.77 | 563.07 | 551.03
80000 kPa | 597.57 | 585.08 | 572.94 | 561.56
90000 kPa | – | 593.33 | 581.86 | 571.14
100000 kPa | 612.79 | 601.18 | 589.89 | 579.66
120000 kPa | 625.93 | 614.9 | 604.27 | 594.85
140000 kPa | 637.29 | 627.05 | 617.11 | 608.04
160000 kPa | 647.82 | 637.77 | 628.25 | 619.73
180000 kPa | 657.28 | 647.6 | 638.65 | 630.34
200000 kPa | 665.98 | 656.49 | 647.73 | 639.98

From the NIST ThermoML archive (doi:10.1016/j.jct.2007.06.014)
